Experimental data published in patent US4704277A, “Methods of treating bone disorders” (Sloan-Kettering Institute for Cancer Research, priority 1985, dated 1987).

Columns and labels:
bone = settings: cited from earlier work
[1] = patients treated in clinical testing; cited from earlier work
[2] = continuous infusion; Warrell 1983, Leyland-Jones 1983; cited from earlier work
bone tissue = test: Histological studies of bone tissue for cytotoxicity
Excerpt: (§1) Cytotoxicity studies were undertaken to determine if gallium nitrate was cytotoxic to bone tissue. […] At this dose and time, a 20% decrease in ^3 H-thymidine incorporation into DNA was seen.

bone hydroxyapatite = test: Wide angle X-ray diffraction of powdered bone (hydroxyapatite crystal size/perfection, B002); type: in vivo, Sprague-Dawley rats; settings: for BOO2 (002 line width at half maximum): gallium treated rats, n=11
Protocol: (§2) Young female (120 g) Sprague-Dawley rats received a course of injections with 0.5 or 5.0 mg gallium nitrate, every other day. The 0.5 mg concentration is approximately equivalent (on a weight/weight basis) to the dose used to treat patients with cancer-related hypercalcemia by Warrell, et. al., supra. The animals received 7 interperitoneal injections over a 9-14 day period. Control groups were injected with carrier only. […] To obtain bone samples the rats were anesthetized and then sacrificed. The long bones were removed and cleaned of all muscle and connective tissue. The metaphyseal (ends containing the growth plate) and diaphyseal (shaft) portions of the bones were separated using a dissecting microscope. The bone pieces were then split and cleaned of all visible marrow, frozen and lyophilized. The split, dried, marrow-free bone fragments were pulverized in a liquid nitrogen cooled colloid mill to produce bone powder. Aliquots of bone particles were used for: (a) ash weight determination, (b) measurement of Ga, Ca and P content and (c) X-ray diffraction analysis. A portion of one bone particle preparation was sieved to uniform size using an #325 stainless steel mesh. Approximately 50 mg of the sieved-particle bone was then dispersed in bromoform:toluene, density=2.0 g/cc (as measured with a pynconometer). The suspension was centrifuged in the cold at 100 x G for 15 minutes. The suspended particles, representing newly formed mineral bone, density <2.0 g/cc were removed, washed with acetone then dried. The pelleted particles, density >2.0 g/cc were similarly washed with acetone and dried. Both the light and heavy density fractions were analyzed for Ga and Ca content.
Aliquots of the powdered bone were subjected to wide angle x-ray diffraction using Cu K(alpha) radiation. Samples were rapidly scanned from 4° 2.phi. to 70° 2.phi. to detect the presence of phases other than hydroxyapatite. Triplicate slow scans from 24° to 28° 2.phi. were used to estimate hydroxyapatite crystal size and perfection based on the line-width measurements (B002) made at the half maximum point of the c-axis 002 reflection at 25.8° 2.phi.. […] As a consequence, crystals formed in the metaphyses of the treated animals were similar to those found in the more mature diaphyses.

[3] = Body weight in gallium nitrate injected rats (lack of toxicity); type: in vivo, Sprague-Dawley rats; settings: 0.5 or 5.0 mg i.p. every other day, end of 14 day schedule
Protocol: as §2, with “The suspension was centrifuged in the cold at 100 x G for 15 minutes. The suspended particles, representing newly formed mineral bone, density <2.0 g/cc were removed, washed with acetone then dried. The pelleted particles, density >2.0 g/cc were similarly washed with acetone and dried.” left out

bone resorption = test: Inhibition of bone resorption by gallium nitrate; settings: direct effect
Protocol: (§3) These additional experiments were performed to permit evaluation of bone turnover in patients with bone metastases, in response to short term infusion of gallium nitrate.

total serum calcium = test: Comparative effect of calcitonin and gallium nitrate on total serum calcium; type: in vivo; settings: one patient; calcitonin many times over recommended dose; FIG. 1
Protocol: Comparative studies were performed as to the effect of Calcitonin on total serum calcium, compared to gallium nitrate in a patient with severe life-threatening hypercalcemia due to bone metastases.

bone turnover = test: Bone turnover in patients with bone metastases on short term gallium nitrate infusion; type: in vivo, human (patients with bone metastases)
Protocol: as §3
Seventeen infusions were administered to fifteen patients, five of whom were hypercalcemic. Gallium nitrate was administered as a continuous infusion at daily doses ranging from […], over 5-7 days. Bone turnover was assessed by serial measurements of urinary levels of Ca^2+, hydroxyproline (OHP), and creatinine (Cr), as well as the serum levels of osteocalcin (BGP). […] Mean reduction was 70±18%. Eight patients with increased bone turnover (i.e., a urinary OHP/Cr ratio greater than 6.0), received eleven drug infusions. […] Mean reduction was 49±22%.

bone calcium = settings: humans; application Ser. No. 622,726; cited from earlier work
bone cell models = test: Cytotoxicity in bone cell models; type: cell-based
Excerpt: as §1

[4] = tested on: long bones (metaphyses and diaphyses); test: Bone Ga, Ca, P content and ash weight of bone fragments from gallium-treated rats; type: in vivo, Sprague-Dawley rats; settings: for bone calcium content vs nontreated: 7 injections of 5 mg over 14 days; for Ga content of bone: gallium treated rats, n=6, 20160 min
Protocol: as §2
Gallium content in bone was measured by flameless atomic absorption spectrophotometry. Inorganic phosphorus was measured spectrophotometrically.
In subsequent experiments, rats were given 7 injections with 5 mg gallium nitrate over 14 days. […] As expected, increased calcium content was measured in the heavier density fraction >2.0 g/cc (220±31 vs 132±42 ug Ca/mg bone) which contained the more mineralized and more mature hydroxyapatite crystalline material.

For `CC(O)(P(=O)(O)O)P(=O)(O)O` [EHDP], the bone mineralization (bone; Schenk et al. 1973) is listed as “blocks normal bone mineralization and leads to formation of disordered and inadequately calcified bone (osteomalacia)”.
For `O=P(O)(O)C(Cl)(Cl)P(=O)(O)O` [dichloromethylenediphosphonate], the leukemia [1] is given as “increased development of leukemia”.
For `F` [fluoride], the bone structure (bone; Jowsey et al. 1968) is listed as “highly abnormal (lamellar-type) bone structure which is less strong relative to normal bone”.
For `O=[N+]([O-])[O-].O=[N+]([O-])[O-].O=[N+]([O-])[O-].[Ga+3]` [gallium nitrate], the safety of administration [2] is listed as “safe and non-toxic”, the “cytotoxic effect at light microscopic level” value (bone tissue; histology) is listed as “no evidence of cytotoxic effect” and the “matrix or mineral components” value (bone tissue; stained sections) is listed as “no alteration in matrix or mineral components”. The mineral phases detected (bone hydroxyapatite; all samples, scan 4° to 70° 2.phi.) was “The only phase detected in all samples was hydroxyapatite”, the “BOO2 (002 line width at half maximum)” value (bone hydroxyapatite; diaphyses) was 0.50 ± .03 degrees and the “B002 vs control” value (bone hydroxyapatite; metaphyseal particles) was “differed significantly”. The “BOO2 (002 line width at half maximum)” value (bone hydroxyapatite; metaphyses) was 0.50 ± .03 degrees, the “hydroxyapatite crystal size/perfection” value (bone hydroxyapatite; metaphyses, region of more active bone mineralization) was “larger or more perfect crystals” and the “body weights or weight gained, treated vs nontreated” value [3] was “no differences”. For the same molecule, the “bone resorption” value (bone resorption) was “directly inhibits bone resorption”, the “reduction of elevated serum calcium vs calcitonin” value (total serum calcium) was “distinctly greater effect on reducing elevated serum calcium” and the “urinary OHP/Cr ratio” value (bone turnover; 6 patients with bone turnover not elevated) was “no significant change”. The “urinary OHP/Cr ratio” value (bone turnover; 8 patients with increased bone turnover (OHP/Cr > 6.0)) was “All patients showed a decrease in OHP/Cr”, the “mean reduction of urinary OHP/Cr ratio” value (bone turnover; 8 patients with increased bone turnover (OHP/Cr > 6.0), 11 infusions) was 49±22% and the “urinary 24 hour Ca2+ excretion” value (bone turnover; after each infusion in all 15 patients) was “markedly reduced after each infusion in all 15 patients”. The “accelerated bone loss” value (bone turnover; cancer patients with bone metastases) was “reduces accelerated bone loss”, the “mean reduction of urinary 24 hour Ca2+ excretion” value (bone turnover; continuous infusion 100-300 mg daily over 5-7 days, 15 patients) was 70±18% and the “excessive loss of bone calcium” value (bone calcium) was “effective in reducing excessive loss of bone calcium”. The “protein banding patterns on SDS-PAGE, treated vs untreated” value (bone cell models; 3H-amino acid labeled cell homogenates) was “no differences”, the “cell numbers or viability” value (bone cell models; 48 hours, up to 25 uM) was “Little change in cell numbers or viability” and the “action as consequence of cytotoxic effect on bone cells” value (bone cell models; conclusion) was “not a consequence of a cytotoxic effect on bone cells”. The “mineral content (ash weights), treated vs control” value ([4]; 7 injections with 5 mg gallium nitrate over 14 days) was “not significantly different”, the “site of greatest gallium uptake” value ([4]; bone fragments, different total doses) was “metaphyseal bone” and the “bone calcium content vs nontreated” value ([4]; diaphyseal fragments) was “No differences in calcium content”. For the same molecule, the “Ga content of bone” value ([4]; diaphyses) was 149 ± 30 ng/mg, the “gallium incorporation into bone” value ([4]; gallium:calcium ratio, different total doses) was “incorporated into bone in very low amounts” and the “Ca content of density fraction” value ([4]; heavier density fraction >2.0 g/cc) was 220±31 ug Ca/mg bone. For the same molecule, the “Ga content of density fraction” value ([4]; heavier density fraction >2.0 g/cc (comparator of the 'vs.')) was 2.9±0.4 ug Ga/mg Ca, the “Ga content of density fraction” value ([4]; lighter bone fraction, <2.0 g/cc (newly synthesized mineral)) was 3.2±0.2 ug Ga/mg Ca and the “Ca content of density fraction” value ([4]; lighter fraction <2.0 g/cc (comparator of the 'vs')) was 132±42 ug Ca/mg bone. For the same molecule, the “Ga content of bone” value ([4]; metaphyses) was 384 ± 69 ng/mg and the “bone calcium content vs nontreated” value ([4]; metaphyses) was “statistically significant increase in bone calcium content”.
In the case of calcitonin, the “rate of bone resorption” value (bone; parenteral) is listed as “transient decrease in the rate of bone resorption”, the “bone mineral content (densimetric)” value (bone; repetitive injections, Gruber et al.) is listed as “increase bone mineral content” and the “duration of anti-resorptive effect” value (bone; tachyphylaxis) is listed as “short-lived”.
